Patent US20160038532A1, “Treatment of Multiple Sclerosis With Combination of Laquinimod and Glatiramer Acetate” (TEVA PHARMACEUTICAL INDUSTRIES, LTD., priority 2011, published 2016)
Values joined by “and” are separate entries in the source; they are usually repeats but may differ in a detail not shown here. Identical values can stand only once. Marks after values point to notes of the source that are not given here.

What was measured:
MSCH-induced EAE = MSCH-induced EAE in CSJL/F1 mice (Example 2.8); format: in vivo; set-up: key to MMS value (Mean Maximal Score) / GMS value (Group Mean Score): EAE clinical score per grading table; 5 = sacrificed or died
Protocol: Disease was induced in all mice by the injection of the encephalitogenic emulsion (MSCH/CFA). The test articles and the vehicle were administered orally twice a day.
For groups 1 and 3 to 6, 360.0 mg MSCH was suspended in 3.0 ml PBS to yield 120 mg/ml MSCH suspension.
0.05 ml was injected into the left foot-pad of each mouse. The concentration of MSCH in emulsion in all groups was 60 mg/mL. The dose of the MSCH in all the groups was 3.0 mg/0.05 ml/mouse. The concentration of MT in emulsion in all groups was 0.25 mg/mL. The dose of the MT in all the groups was 0.0125 mg/0.05 ml/mouse.
36 μL Pertussis toxin (200 μg/ml) was added to 44.964 ml PBS to yield 160 ng/ml. The pertussis toxin was administered intravenous on the day of encephalitogen injection and 48 hours later (80.0 ng/0.5 ml/mouse).
Solutions at concentration of 0.001, 0.01, 0.03 and 0.1 mg/mL laquinimod were prepared in water for dose levels of 0.01, 0.1, 0.3 and 1.0 mg/kg respectively. The test formulations were stored at 2 to 8° C. until use in amber colored bottles.
The mice were administered with the respective dose levels of laquinimod at volume dose level of 200 μL/mouse. The test formulations were vortexed before dispensing in syringe.
The different dose levels laquinimod were administered to the respective groups once a day.
Scoring of EAE clinical signs was initiated from the 10th day post-EAE induction and was continued daily until Day 23. The clinical signs were recorded on observation cards according to a grading system described in the table 23 above. Animals with score 4 for more than three days were given score 5 and sacrificed for humane reasons. For calculation purposes, the score (5) of animals that are sacrificed or died were carried forward.
The calculations are as shown in Example 2.4.

MOG-induced EAE [1] = experiment: MOG-induced EAE, laquinimod alone and with GA blocking (Example 2.1), clinical signs; format: in vivo, C57B1/6 mice; set-up: Mortality: concentration or dose not given beside the values
MOG-induced EAE [2] = experiment: MOG-induced EAE, lower doses of laquinimod with GA-blocking (Example 2.2); format: in vivo, C57B1/6 mice
Protocol: MOG is a member of the immunoglobulin superfamily expressed exclusively in CNS myelin. It is one of the most encephalitogenic proteins and is widely used to induce EAE in different rodent strains. In C57BL/6 mice, immunization with the MOG peptide pMOG35-55 in CFA induces chronic progressive EAE.
24 mg MOG was diluted in 8 ml PBS (3 mg/ml, stock solution). Groups 1, 3 and 5: 3.5 ml of stock solution was diluted 1:1 with PBS. […] 4.5 ml of MOG stock solution was added to this solution.
The high dose LAQ (5 mg/10 ml/kg) solution (40 mg in 80 ml DDW) was prepared once weekly and stored at room temperature. For the dose of 2.5 mg/kg LAQ, 25 ml of this solution were added to 25 ml DDW. For the dose 1 mg/kg 5 ml of stock solution (high dose) were added to 20 ml DDW. The compound was administered by gavage once daily during the whole experiment (30 days) at a volume of 0.2 ml/mouse.
The mice were observed daily from the 9th day post-EAE induction (first injection of MOG) and the EAE clinical signs were scored according to the grades described in the 2 above.

[3] = LAQ 0.01 mg/kg daily, orally by gavage
[4] = LAQ 0.1 mg/kg daily, orally by gavage
[5] = LAQ 0.3 mg/kg daily, orally by gavage
[6] = LAQ 1.0 mg/kg daily, orally by gavage
[7] = laquinimod 0.1 mg/kg/day oral, alone or + GA 0.5 mg/kg
[8] = laquinimod 5 mg/kg/day gavage, alone or + GA-blocking 12.5 mg/kg day 0
[9] = laquinimod 25 mg/kg/day gavage, alone or + GA-blocking 12.5 mg/kg day 0
[10] = laquinimod 2.5 mg/kg/day gavage, alone or + GA-blocking 12.5 mg/kg day 0
[11] = GA 0.5 mg/kg (sub optimal) with encephalitogen
[12] = GA blocking 0.5 mg/kg (sub-optimal dose), with encephalitogen
[13] = GA-blocking 12.5 mg/kg (250 μg/mouse) in inoculum day 0
[14] = GA-blocking 12.5 mg/kg in inoculum day 0

For CCN(C(=O)c1c(O)c2c(Cl)cccc2n(C)c1=O)c1ccccc1 [laquinimod], the “% Inhibition 1 (according to Incidence)” value (MSCH-induced EAE; [3]) was 0.0%, the “% Inhibition 2 (according to MMS)” value (MSCH-induced EAE; [3]) was 24.4% and the “% Inhibition 3 (according to GMS)” value (MSCH-induced EAE; [3]) was 35.3%( ). For the same molecule, the “GMS value (Group Mean Score)” value (MSCH-induced EAE; [3]) was 2.2 ± 1.2, the Incidence (MSCH-induced EAE; [3]) was 10/11 and the “MMS value (Mean Maximal Score)” value (MSCH-induced EAE; [3]) was 3.4 ± 1.4. For the same molecule, the “Mean Duration” value (MSCH-induced EAE; [3]) was 9.5 days, the Mortality (MSCH-induced EAE; [3]) was 2/11 and the “Onset” value (MSCH-induced EAE; [3]) was 13.7 days. The “% Inhibition 1 (according to Incidence)” value (MSCH-induced EAE; [4]) was 90.0%, the “% Inhibition 2 (according to MMS)” value (MSCH-induced EAE; [4]) was 42.2% and the “% Inhibition 3 (according to GMS)” value (MSCH-induced EAE; [4]) was 55.9%( ). The “GMS value (Group Mean Score)” value (MSCH-induced EAE; [4]) was 1.5 ± 1.2, the Incidence (MSCH-induced EAE; [4]) was 1/11 and the “MMS value (Mean Maximal Score)” value (MSCH-induced EAE; [4]) was 2.6 ± 1.8. For the same molecule, the “Mean Duration” value (MSCH-induced EAE; [4]) was 6.9 days, the Mortality (MSCH-induced EAE; [4]) was 8/11 and the “Onset” value (MSCH-induced EAE; [4]) was 16.5 days. The “% Inhibition 1 (according to Incidence)” value (MSCH-induced EAE; [5]) was 30.0%, the “% Inhibition 2 (according to MMS)” value (MSCH-induced EAE; [5]) was 53.3% and the “% Inhibition 3 (according to GMS)” value (MSCH-induced EAE; [5]) was 73.5%( ). The “GMS value (Group Mean Score)” value (MSCH-induced EAE; [5]) was 0.9 ± 0.9, the Incidence (MSCH-induced EAE; [5]) was 7/11 and the “MMS value (Mean Maximal Score)” value (MSCH-induced EAE; [5]) was 2.1 ± 1.8. The “Mean Duration” value (MSCH-induced EAE; [5]) was 4.2 days, the Mortality (MSCH-induced EAE; [5]) was 1/11 and the “Onset” value (MSCH-induced EAE; [5]) was 17.3 days. The “% Inhibition 1 (according to Incidence)” value (MSCH-induced EAE; [6]) was 90.0%, the “% Inhibition 2 (according to MMS)” value (MSCH-induced EAE; [6]) was 93.3% and the “% Inhibition 3 (according to GMS)” value (MSCH-induced EAE; [6]) was 97.1%( ). The “GMS value (Group Mean Score)” value (MSCH-induced EAE; [6]) was 0.1 ± 0.3, the Incidence (MSCH-induced EAE; [6]) was 1/11 and the “MMS value (Mean Maximal Score)” value (MSCH-induced EAE; [6]) was 0.3 ± 0.9. For the same molecule, the “Mean Duration” value (MSCH-induced EAE; [6]) was 0.5 days, the Mortality (MSCH-induced EAE; [6]) was 0/11 and the “Onset” value (MSCH-induced EAE; [6]) was 23.5 days. The Incidence (MSCH-induced EAE; laquinimod 0.01 mg/kg/day oral) was 91%, the “activity according to GMS” value (MSCH-induced EAE; laquinimod 0.01 mg/kg/day oral) was 35.3% and the “activity according to incidence” value (MSCH-induced EAE; laquinimod 0.01 mg/kg/day oral) was 9.1%. The duration of disease (MSCH-induced EAE; laquinimod 0.01 mg/kg/day oral) was 13.7 ± 3.8 days, the onset of disease (MSCH-induced EAE; laquinimod 0.01 mg/kg/day oral) was 9.5 ± 3.9 days and the “activity according to GMS” value (MSCH-induced EAE; [7]) was 55.9%. For the same molecule, the “activity according to incidence” value (MSCH-induced EAE; [7]) was 27.3%, the “activity according to GMS” value (MSCH-induced EAE; laquinimod 0.3 mg/kg/day oral) was 73.5% and the “activity according to incidence” value (MSCH-induced EAE; laquinimod 0.3 mg/kg/day oral) was 36.4%. For the same molecule, the “activity (conclusion)” value (MSCH-induced EAE; laquinimod 1.0 mg/kg as printed, alone or + GA 0.5 mg/kg) was 55.9%, the “activity according to GMS” value (MSCH-induced EAE; laquinimod 1.0 mg/kg/day oral) was 97.1% and the “activity according to incidence” value (MSCH-induced EAE; laquinimod 1.0 mg/kg/day oral) was 90.9%. The inhibition at 5 mg/kg (MOG-induced EAE [1]; Mus musculus, po, 0 h, laquinimod 5 mg/kg/day gavage, alone or + GA-blocking 12.5 mg/kg day 0, read-out: % inhibition compared to control (GMS)) was 31.2%, the inhibition at 25 mg/kg (MOG-induced EAE [1]; Mus musculus, po, 0 h, laquinimod 25 mg/kg/day gavage, alone or + GA-blocking 12.5 mg/kg day 0, read-out: % inhibition compared to control (GMS)) was 54.4% and the “Group Mean Score” value (MOG-induced EAE [1]; [8]) was 2.25**. For the same molecule, the Incidence (MOG-induced EAE [1]; [8]) was 13/13, the “Mean Disease Duration” value (MOG-induced EAE [1]; [8]) was 13.2*** days and the “Mean Maximal Score” value (MOG-induced EAE [1]; [8]) was 4.38*. For the same molecule, the “Mean Onset” value (MOG-induced EAE [1]; [8]) was 16.8* days, the “Group Mean Score” value (MOG-induced EAE [1]; [9]) was 1.49*** and the Incidence (MOG-induced EAE [1]; [9]) was 14/15. For the same molecule, the “Mean Disease Duration” value (MOG-induced EAE [1]; [9]) was 10.0*** days, the “Mean Maximal Score” value (MOG-induced EAE [1]; [9]) was 3.27*** and the “Mean Onset” value (MOG-induced EAE [1]; [9]) was 20.3** days. For the same molecule, the Mortality (MOG-induced EAE [1]; mouse, in vivo) was 0/15 and 2/13, the inhibition at 2.5 mg/kg (MOG-induced EAE [2]; Mus musculus, po, 0 h, laquinimod 2.5 mg/kg/day gavage, alone or + GA-blocking 12.5 mg/kg day 0, read-out: % Inhibition compared to control (GMS)) was 53.7% and the inhibition at 5 mg/kg (MOG-induced EAE [2]; Mus musculus, po, 0 h, laquinimod 5 mg/kg/day gavage, alone or + GA-blocking 12.5 mg/kg day 0, read-out: % Inhibition compared to control (GMS)) was ≤ 68%. For the same molecule, the “Group Mean Score” value (MOG-induced EAE [2]; [10]) was 1.50**, the Incidence (MOG-induced EAE [2]; [10]) was 13/15 and the “Mean Disease Duration” value (MOG-induced EAE [2]; [10]) was 10.2*** days. For the same molecule, the “Mean Maximal Score” value (MOG-induced EAE [2]; [10]) was 3.17**, the “Mean Onset” value (MOG-induced EAE [2]; [10]) was 18.9*** days and the Mortality (MOG-induced EAE [2]; [10]) was 1/15. The “% inhibition compared to Control (GMS)” value (MOG-induced EAE [2]; [8]) was 68.2%, the “Group Mean Score” value (MOG-induced EAE [2]; [8]) was 1.03*** and the Incidence (MOG-induced EAE [2]; [8]) was 12/14. For the same molecule, the “Mean Disease Duration” value (MOG-induced EAE [2]; [8]) was 8.6*** days, the “Mean Maximal Score” value (MOG-induced EAE [2]; [8]) was 2.89** and the “Mean Onset” value (MOG-induced EAE [2]; [8]) was 18.1*** days. The Mortality (MOG-induced EAE [2]; [8]) was 0/14.
With “L-glutamic acid polymer with L-alanine, L-lysine and L-tyrosine, acetate (salt) [GA]” the Incidence (MSCH-induced EAE; [11]) was 4/11, the MMS (MSCH-induced EAE; [11]) was 1.1±15 and the “activity according to GMS” value (MSCH-induced EAE; [11]) was 79.4%. For the same molecule, the “% Inhibition 1 (according to Incidence)” value (MSCH-induced EAE; [12]) was 60.0%, the “% Inhibition 2 (according to MMS)” value (MSCH-induced EAE; [12]) was 75.5% and the “% Inhibition 3 (according to GMS)” value (MSCH-induced EAE; [12]) was 79.4%( ). The “GMS value (Group Mean Score)” value (MSCH-induced EAE; [12]) was 0.7 ± 1.0, the Incidence (MSCH-induced EAE; [12]) was 4/11 and the “MMS value (Mean Maximal Score)” value (MSCH-induced EAE; [12]) was 1.1 ± 1.5. The “Mean Duration” value (MSCH-induced EAE; [12]) was 3.6 days, the “Onset” value (MSCH-induced EAE; [12]) was 20.4 days and the “% inhibition compared to Control (GMS)” value (MOG-induced EAE [1]; [13]) was 48%. For the same molecule, the “Group Mean Score” value (MOG-induced EAE [1]; [13]) was 1.70**, the Incidence (MOG-induced EAE [1]; [13]) was 14/16 and the “Mean Disease Duration” value (MOG-induced EAE [1]; [13]) was 10.9*** days. For the same molecule, the “Mean Maximal Score” value (MOG-induced EAE [1]; [13]) was 3.34**, the “Mean Onset” value (MOG-induced EAE [1]; [13]) was 19.5* days and the “% inhibition compared to Control (GMS)” value (MOG-induced EAE [2]; [14]) was 77.5%. For the same molecule, the “Group Mean Score” value (MOG-induced EAE [2]; [14]) was 0.73***, the Incidence (MOG-induced EAE [2]; [14]) was 11/14 and the “Mean Disease Duration” value (MOG-induced EAE [2]; [14]) was 7.1*** days. The “Mean Maximal Score” value (MOG-induced EAE [2]; [14]) was 2.18*** and the “Mean Onset” value (MOG-induced EAE [2]; [14]) was 18.7*** days.
